Molecular target: Pin1 (Homo sapiens, UniProt Q13526)
Assay: protease-coupled PPIase assay (pNA release at […] nm, […]°C)
Type: biochemical

Chain of Pin1 (Q13526 whole entry): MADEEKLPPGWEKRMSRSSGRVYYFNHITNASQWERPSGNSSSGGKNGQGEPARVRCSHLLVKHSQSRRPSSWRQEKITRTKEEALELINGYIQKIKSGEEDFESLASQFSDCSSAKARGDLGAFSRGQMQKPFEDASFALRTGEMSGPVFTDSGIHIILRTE

Row | IC50 [µM] | SMILES
1 | 52 ± 4 | CC(=O)N[C@H](/C=C1/CCCC[C@@H]1C(=O)NCCc1ccc2ccccc2c1)COP(=O)(O)O [(2R,5S)-1, Ac–L-pSer–Ψ[(Z)CH = C]-D-Pip–NEA]
2 | 85 ± 10 | CC(=O)N[C@@H](/C=C1/CCCC[C@H]1C(=O)NCCc1ccc2ccccc2c1)COP(=O)(O)O [(2S,5R)-1, Ac–D-pSer–Ψ[(Z)CH = C]–L-Pip–2-(2-naphthyl)ethylamine (NEA)]
3 | 140 ± 20 | CC(=O)N[C@@H](/C=C1/CCCC[C@@H]1C(=O)NCCc1ccc2ccccc2c1)COP(=O)(O)O [(2S,5S)-1, (2S,5S)-Ac–pSer–Ψ[(Z)CH = C]–pipecolyl(Pip)–2-(2-naphthyl)ethylamine 1]

Source: paper PMC4596862, “Stereochemical Control in the Still-Wittig Rearrangement Synthesis of Cyclohexyl (Z)-Alkene Inhibitors of Pin1” (PLoS ONE, 2015)
